How the values were obtained:
[1] = Cytotoxicity against human HMLE cells assessed as reduction in cell metabolic activity after 72 hrs by MTS assay; format: ADME, cell-based
MDA-MB-231 = test: Cytotoxicity against human MDA-MB-231 cells assessed as reduction in cell metabolic activity after 72 hrs by MTS assay; format: functional, cell-based; details: MDA-MB-231, 72 h

SMILES | IC50 [1] | IC50 (MDA-MB-231)
CN[C@@H]1C[C@H]2O[C@@](C)([C@@H]1OC)n1c3cc(O)ccc3c3c4c(c5c6ccccc6n2c5c31)C(=O)NC4 | 58.7 nM | 3.4 nM
CN[C@@H]1C[C@H]2O[C@@](C)([C@@H]1OC)n1c3ccc(O)cc3c3c4c(c5c6ccccc6n2c5c31)C(=O)NC4 | 27.5 nM | 2 nM
CN[C@@H]1C[C@H]2O[C@@](C)([C@@H]1OC)n1c3ccccc3c3c4c(c5c6ccccc6n2c5c31)C(=O)NC4 [STAUROSPORINE] |  | 2.5 nM

From ChEMBL document CHEMBL4725491, “Staurosporine Analogs Via C-H Borylation” (ACS Med Chem Lett, 2020)
